From PubChem BioAssay AID977613 (Broad Institute, 2014)
The source made the active and inactive calls. The rule behind the calls is not given here.

Test system: Broad 7084-01 inhibitor HTS, set 2
Experiment: inhibitors in Broad screen 7084-01, set 2 (AID 977613);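 note: host cells are infected with parasite promastigotes that become internalized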

Row | SMILES | active concentration
1 | CC(C)CC#Cc1ccc([C@@H]2[C@H]3CN(C(=O)c4ccccn4)CC(=O)N3[C@H]2CO)cc1 | > 10 µM (inactive)
2 | CCC(=O)N1CC(=O)N2[C@H](CO)[C@H](c3ccc(-c4ccc(C#N)cc4)cc3)[C@H]2C1 | > 10 µM (inactive)
3 | O=C(C[C@@H]1CC[C@@H]2[C@H](COC[C@H](O)CN2C(=O)c2ccc3c(c2)OCO3)O1)NC1CCC1 | > 10 µM (inactive)
4 | COCC(=O)N1CC2(CCN(Cc3cccnc3)CC2)c2c(n(C)c3cc(OC)ccc23)[C@@H]1CO | > 10 µM (inactive)
5 | O=C(Nc1ccccc1F)N1CC(=O)N2[C@@H](CO)[C@H](c3ccc(-c4cccnc4)cc3)[C@@H]2C1 | > 10 µM (inactive)
6 | CC(C)NC(=O)N1CC2(C1)[C@H](c1ccccc1)[C@@H](CO)N2CCC(F)(F)F | > 10 µM (inactive)
7 | CC(=O)N1[C@@H](CO)[C@@H](c2ccc(C3=CCCC3)cc2)C12CN(C(=O)NC(C)C)C2 | > 10 µM (inactive)
8 | CCS(=O)(=O)N1CC2(CN(C(=O)Cc3ccccn3)[C@H](CO)c3[nH]c4cc(OC)ccc4c32)C1 | > 10 µM (inactive)
9 | C[C@H](O)C#Cc1ccc([C@@H]2[C@@H](CO)N3CCCCN(C(=O)c4ccc5c(c4)OCO5)C[C@H]23)cc1 | > 10 µM (inactive)
10 | O=C(NC1Cc2ccccc2C1)[C@H]1[C@H](CO)[C@H]2Cn3c(cccc3=O)[C@@H]1N2C(=O)CC1CC1 | > 10 µM (inactive)
11 | CCCNC(=O)N1[C@@H]2CN(C(=O)c3cccnc3)c3ccccc3[C@@H]2[C@@H]1CO | > 10 µM (inactive)
12 | COc1ccc(-c2ccc3c(c2)[C@@H]2[C@@H](CCN2C(=O)CN2CCOCC2)[C@@H](CO)N3)cc1 | > 10 µM (inactive)
13 | C/C=C/c1ccc([C@@H]2[C@@H](CO)N3C(=O)CN(C(=O)c4ccncc4)C[C@@H]23)cc1 | > 10 µM (inactive)
14 | COc1cccc(-c2ccc3c(c2)[C@H]2[C@H](CCN2S(=O)(=O)c2cn(C)cn2)[C@H](CO)N3)c1 | > 10 µM (inactive)
15 | N#C[C@@H]1[C@H](c2ccccc2C2=CCCC2)[C@@H](CO)N1C(=O)CN1CCOCC1 | > 10 µM (inactive)
16 | CN1C(=O)c2cc(NS(C)(=O)=O)ccc2OC[C@@H]2O[C@@H](CC(=O)NC3CCCCC3)CC[C@H]21 | > 10 µM (inactive)
17 | CN1C(=O)c2cc(NC(=O)c3ccc(F)c(F)c3)ccc2OC[C@H]2O[C@@H](CC(=O)N[C@H]3CCN(Cc4ccccc4)C3)CC[C@@H]21 | > 10 µM (inactive)
18 | COc1ccc(NC(=O)N2CCCCN3[C@H](C2)[C@H](c2ccc(-c4ccccc4F)cc2)[C@@H]3CO)cc1 | > 10 µM (inactive)
19 | CN1C(=O)c2cc(NS(C)(=O)=O)ccc2OC[C@@H]2O[C@H](CC(=O)NC3CCCCC3)CC[C@H]21 | > 10 µM (inactive)
20 | O=C(CC1CC1)N1CC(=O)N2[C@H](CO)[C@H](c3ccc(C#Cc4cccc(F)c4)cc3)[C@@H]2C1 | > 10 µM (inactive)
21 | O=C(C[C@@H]1CC[C@@H]2[C@H](COC[C@H](O)CN2CC2CC2)O1)NCc1ccc(Cl)cc1 | > 10 µM (inactive)
22 | N#C[C@@H]1[C@@H](c2ccccc2C2=CCCCC2)[C@@H](CO)N1S(=O)(=O)c1cccc(F)c1 | > 10 µM (inactive)
23 | CC(C)NC(=O)Nc1ccc2c(c1)C(=O)N(C)[C@@H]1CC[C@@H](CC(=O)NCc3ccc(F)cc3)O[C@H]1CO2 | > 10 µM (inactive)

Row | SMILES | active concentration
24 | CN(C)CC(=O)N1C[C@@H]2[C@H](c3ccccc31)[C@H](CO)N2Cc1cc(F)ccc1F | > 10 µM (inactive)
25 | Cc1ccccc1-c1ccc([C@@H]2[C@@H](CO)N3C(=O)CN(S(C)(=O)=O)C[C@H]23)cc1 | > 10 µM (inactive)
26 | O=C(C[C@@H]1CC[C@H]2[C@@H](COC[C@@H](O)CN2CC2CC2)O1)NCc1ccc(Cl)cc1 | > 10 µM (inactive)
27 | C[C@H](O)C#Cc1ccc([C@H]2[C@@H](CO)N3CCCCN(C(=O)c4ccc5c(c4)OCO5)C[C@@H]23)cc1 | > 10 µM (inactive)
28 | CC=Cc1ccc2n(c1=O)C[C@H]1[C@H](CO)[C@@H](C(=O)NCC)[C@@H]2N1Cc1cccc(Cl)c1 (mixture of isomers) | > 10 µM (inactive)
29 | C/C=C/c1ccc([C@@H]2[C@H](CO)N(S(=O)(=O)CC)C23CN(C(C)=O)C3)cc1 | > 10 µM (inactive)
30 | O=C(C1CCCCC1)N1C[C@H]2[C@@H](c3ccccc31)[C@H](CO)N2C(=O)Cc1ccccn1 | > 10 µM (inactive)
31 | CCCNC(=O)N1CC2(CCN(C(=O)c3cccc(F)c3)CC2)c2c([nH]c3cc(OC)ccc23)[C@H]1CO | > 10 µM (inactive)
32 | C/C=C/c1ccc([C@@H]2[C@H]3CN(Cc4ccc(F)cc4)CC(=O)N3[C@H]2CO)cc1 | > 10 µM (inactive)
33 | O=S(=O)(c1ccccc1F)N1CC[C@@H]2[C@H]1c1cc(-c3ccccc3F)ccc1N[C@@H]2CO | > 10 µM (inactive)
34 | CN1c2ccc(-c3cccc(F)c3)cc2[C@@H]2[C@@H](CCN2C(=O)c2ccccc2F)[C@H]1CO | > 10 µM (inactive)
35 | O=C1CNC[C@@H]2[C@H](c3ccc(C#CC4CCCCC4)cc3)[C@@H](CO)N12 | > 10 µM (inactive)
36 | CN1C(=O)c2cc(NC(=O)c3cnccn3)ccc2OC[C@H]2O[C@H](CC(=O)NCC3CCCCC3)CC[C@@H]21 | > 10 µM (inactive)
37 | CN1C(=O)c2cc(NC(=O)Nc3ccccc3Cl)ccc2OC[C@H]2O[C@@H](CC(=O)NCCCN3CCOCC3)CC[C@@H]21 | > 10 µM (inactive)
38 | CN1CCN(C(=O)C[C@H]2CC[C@H]3[C@@H](COC[C@@H](O)CN3C(=O)C3CC3)O2)CC1 | > 10 µM (inactive)
39 | CN(C)C(=O)[C@H]1[C@H](CO)[C@H]2Cn3c(ccc(-c4cncnc4)c3=O)[C@H]2N1Cc1cc(F)ccc1F | > 10 µM (inactive)
40 | OC[C@@H]1[C@H](c2ccc(Br)cc2)[C@H]2CN(Cc3ccccn3)CCCCN12 | > 10 µM (inactive)
41 | O=C(C1CCCCC1)N1CC(=O)N2[C@@H](CO)[C@@H](c3ccc(-c4ccccc4F)cc3)[C@@H]2C1 | > 10 µM (inactive)
42 | CN1C(=O)c2cc(NC(=O)c3ccccc3Cl)ccc2OC[C@H]2O[C@H](CC(=O)NCC(F)(F)F)CC[C@H]21 | > 10 µM (inactive)
43 | O=C(C[C@@H]1CC[C@@H]2[C@H](COC[C@@H](O)CN2Cc2ccc(Cl)cc2)O1)NCc1ccccc1Cl | > 10 µM (inactive)
44 | CCCC#Cc1ccc([C@H]2[C@H](CO)N3C(=O)CN(C(=O)c4cccnc4)C[C@@H]23)cc1 | > 10 µM (inactive)
45 | CN1C(=O)c2cc(NC(=O)Cc3cccs3)ccc2OC[C@@H]2O[C@@H](CC(=O)N[C@H]3CCN(Cc4ccccc4)C3)CC[C@H]21 | > 10 µM (inactive)
46 | O=C(NC1CCCC1)N1CCCCN2[C@H](C1)[C@@H](c1ccc(-c3cccnc3)cc1)[C@@H]2CO | > 10 µM (inactive)

Row | SMILES | active concentration
47 | O=C(Cc1ccccn1)N1CC2(C1)[C@H](c1ccccc1)[C@@H](CO)N2C(=O)c1cccnc1 | > 10 µM (inactive)
48 | O=C(C[C@@H]1CC[C@H]2[C@@H](COC[C@@H](O)CN2C(=O)Nc2ccc(Cl)c(Cl)c2)O1)NCc1ccc(Cl)cc1 | > 10 µM (inactive)
49 | O=C(C[C@@H]1CC[C@@H]2[C@H](COC[C@H](O)CN2C(=O)c2ccccc2F)O1)NCc1ccccc1 | > 10 µM (inactive)
50 | CC(C)(O)C#Cc1ccc([C@H]2[C@H](CO)N3CCCCN(S(C)(=O)=O)C[C@@H]23)cc1 | > 10 µM (inactive)
51 | O=C(C[C@H]1CC[C@@H]2[C@H](COC[C@H](O)CN2Cc2cc(F)ccc2F)O1)NCc1ccc(F)cc1 | > 10 µM (inactive)
52 | O=C(O)[C@H]1[C@H](CO)[C@H]2Cn3c(ccc(/C=C/c4ccccc4)c3=O)[C@H]2N1Cc1ccc2c(c1)OCO2 | > 10 µM (inactive)
53 | O=C(C1CCCCC1)N1CC(=O)N2[C@H](CO)[C@@H](c3ccc(-c4ccccc4F)cc3)[C@@H]2C1 | > 10 µM (inactive)
54 | N#C[C@@H]1[C@H](c2ccccc2C2=CCCCC2)[C@@H](CO)N1C(=O)C1CCOCC1 | > 10 µM (inactive)
55 | OC[C@H]1[C@@H](c2ccc(C#CC3(O)CCCC3)cc2)[C@H]2CN(Cc3cncnc3)CCCCN21 | > 10 µM (inactive)
56 | CCCC(=O)N1CC2(C1)CN(C(=O)c1ccc(F)cc1)[C@H](CO)c1[nH]c3cc(OC)ccc3c12 | > 10 µM (inactive)
57 | CC(=O)N1CC[C@@H]2[C@H]1c1cc(-c3ccc(F)cc3)ccc1N[C@@H]2CO | > 10 µM (inactive)
58 | O=C(C[C@@H]1CC[C@@H]2[C@H](COC[C@H](O)CN2C(=O)Nc2ccc(Cl)cc2)O1)NCC1CC1 | > 10 µM (inactive)
59 | CC(C)CC#Cc1ccc([C@@H]2[C@H](CO)N3C(=O)CN(C(=O)c4ccccn4)C[C@@H]23)cc1 | > 10 µM (inactive)
60 | CCC(=O)N1CC(=O)N2[C@H](CO)[C@H](c3ccc(-c4ccc(C#N)cc4)cc3)[C@@H]2C1 | > 10 µM (inactive)
61 | COCCNC(=O)[C@@H]1[C@@H](CO)[C@@H]2Cn3c(cccc3=O)[C@H]1N2S(=O)(=O)c1ccccc1C | > 10 µM (inactive)
62 | OC[C@@H]1Nc2ccc(-c3ccccc3)cc2[C@H]2[C@@H]1CCN2Cc1ccccc1F | > 10 µM (inactive)
63 | COc1ccc(NC(=O)N2CC(=O)N3[C@H](CO)[C@@H](c4ccc(Br)cc4)[C@@H]3C2)cc1 | > 10 µM (inactive)
64 | COc1ccccc1-c1ccc([C@@H]2[C@@H](CO)N(CC3CC3)C23CN(S(C)(=O)=O)C3)cc1 | > 10 µM (inactive)
65 | CCCNC(=O)N1CC2(C1)[C@@H](c1ccccc1)[C@@H](CO)N2Cc1ccccn1 | > 10 µM (inactive)
66 | C/C=C/c1ccc([C@@H]2[C@H](CO)N(C(=O)CC)C23CN(CCC(F)(F)F)C3)cc1 | > 10 µM (inactive)
67 | COc1cccc(-c2ccccc2[C@H]2[C@@H](C#N)N(C(=O)c3ccccn3)[C@@H]2CO)c1 | > 10 µM (inactive)
68 | O=C(C[C@H]1CC[C@@H]2[C@H](COC[C@H](O)CN2C(=O)C2CC2)O1)NCc1ccncc1 | > 10 µM (inactive)
69 | O=C(C[C@@H]1CC[C@H]2[C@@H](COC[C@@H](O)CN2C(=O)Nc2ccc(Cl)cc2)O1)NCC1CC1 | > 10 µM (inactive)
